Where a name gives a salt, the structure may show the parent alone.
B1: C16: silk polypeptide which comprises 16 repeats of the sequence of module C (SEQ ID NO: 21) (protein)
chain: GSSAAAAAAAASGPGGYGPENQGPSGPGGYGPGGPGSSAAAAAAAASGPGGYGPENQGPSGPGGYGPGGPGSSAAAAAAAASGPGGYGPENQGPSGPGGYGPGGPGSSAAAAAAAASGPGGYGPENQGPSGPGGYGPGGPGSSAAAAAAAASGPGGYGPENQGPSGPGGYGPGGPGSSAAAAAAAASGPGGYGPENQGPSGPGGYGPGGPGSSAAAAAAAASGPGGYGPENQGPSGPGGYGPGGPGSSAAAAAAAASGPGGYGPENQGPSGPGGYGPGGPGSSAAAAAAAASGPGGYGPENQGPSGPGGYGPGGPGSSAAAAAAAASGPGGYGPENQGPSGPGGYGPGGPGSSAAAAAAAASGPGGYGPENQGPSGPGGYGPGGPGSSAAAAAAAASGPGGYGPENQGPSGPGGYGPGGPGSSAAAAAAAASGPGGYGPENQGPSGPGGYGPGGPGSSAAAAAAAASGPGGYGPENQGPSGPGGYGPGGPGSSAAAAAAAASGPGGYGPENQGPSGPGGYGPGGPGSSAAAAAAAASGPGGYGPENQGPSGPGGYGPGGP

Assays:
Type in all cases: physicochemical
[1] = tested on: C16 films; assay: Remote loading of drugs and model protein lysozyme into C16 films; conditions: 30 min, room temperature
Protocol: Loading efficiency and loading were determinate for lysozyme dissolved in high purified water (HPW). For the remote loading of lysozyme, the loading solution was prepared dissolving 1% w/v lysozyme in high purified water. Three different films were weighted, following by incubation in a 6-well plate with 5 ml of the loading solution at room temperature, at 2 rpm. After 30 min, films were removed and the loading solution was diluted 1:20 and analysed photometrically at 280 nm recording its spectra using a spectrophotometer (Agilent Technologies 8453, Oberhaching, Germany). A calibration curve was prepared using the original lysozyme solution. The same method was performed using as incubation medium of 0.5% and 0.25% of lysozyme.
A) Low molecular weight drugs (tetracain hydrochloride, ethacridine monohydrate lactate, nipagin and phenol red) were dissolved at a concentration of 0.5 mg/ml in highly purified water (HPW), Tris 5 mM pH 7, and formate buffer 5 mM, pH 3, respectively. After dissolving the drugs, all solutions were filtered through a 0.45 μm cellulose acetate filter.
For the remote loading process, the previously cast C16 films were cut into pieces, weighed and placed into 24-well plates. At least four C16 film samples were incubated with 1 ml of each drug solutions for 30 min at gently agitation of 2 rpm at room temperature. After removing the C16 films, the quantities of the loaded drugs were calculated indirectly by measuring the remaining loading solutions photometrically. Finally, the loading and the loading-efficiency for each experimental condition were calculated (see Table 1).
For the remote loading of the model protein lysozyme, the loading solution was prepared by dissolving 1% w/v lysozyme in HPW. As before, three different C16 films were weighed. Afterwards, C16 films were incubated in a 6-well plate with 5 ml of the loading solution at gently agitation of 2 rpm at room temperature. After 30 min, C16 films were removed and the loading solution was analysed photometrically at 280 nm. Spectra were recorded using a spectrophotometer. At physiological pH, spider silk films are negatively charged.
B) For the remote loading of Lysozyme, the loading solution was prepared dissolving 1% w/v lysozyme in high purified water (HPW). Three different C16 films were weighted, followed by incubation in a 6-well plate with 5 ml of the loading solution at gently agitation of 2 rpm at room temperature. After 30 min, C16 films were removed and the loading solution was diluted 1:20 and analyzed photometrically at 280 nm. In particular, a spectra of this solution was subsequently recorded using a spectrophotometer (Agilent Technologies 8453, Oberhaching, Germany). A calibration curve was prepared using the original lysozyme solution. The same method was performed using an incubation medium with 0.5% and 0.25% of Lysozyme.

[2] = Cumulative release of paracetamol, FITC-dextran and FITC-BSA from directly loaded C16 films; conditions: for Release from C16 films (in words): 0.01 M PBS buffer pH 7.4, 37° C.
Protocol: Paracetamol: Before casting the C16 films, paracetamol was added and dissolved directly in 2.5% C16 protein solution. The resulting films contained each 2.5 mg of paracetamol. Three film samples containing paracetamol were incubated in 0.01 M PBS buffer pH 7.4 at 37° C. At predetermined time points, the buffer was removed and replaced with fresh medium. The release buffer was analyzed by NanoDrop 2000 (peqlab, Erlanger, Germany). […] Each film contained 1.3 mg of FITC-BSA or FD. Films containing the model drugs (n=3) were incubated in 0.01 M PBS buffer pH 7.4 at 37° C. At predetermined time points the buffer was removed and replaced with fresh medium. The release buffer was analyzed using the fluorescence spectrophotometer Cary Eclipse Varian (Agilent technology, Böblingen, Germany) applying an excitation wavelength of 490 nm and an emission of 520 nm. The drug which was not released was quantified by dissolving the film matrix in a 6 M GdmSCN solution. This solution was subsequently analyzed using a fluorescence spectrophotometer.
A) Spray-dried C16 proteins were dissolved in 6 M guanidinium thiocyanate and subsequently dialyzed against 5 mM Tris/HCl buffer, pH 8 at 4° C. The pH was measured using a pH meter. The protein solution was centrifuged at 10000 rpm for 15 min and filtered through a 0.45 μm cellulose acetate filter. The protein concentration was determined photometrically. The protein solution was finally diluted with Tris buffer to 2.5% w/v. Before casting the films, paracetamol was added and dissolved directly in the protein solution. Films (2.5×3 cm) were cast on the plastic foil A5 22/5B from mtv-messtechnik (Koeln, Germany) and dried in a laminar flow cabinet at room temperature overnight at 45% relative humidity. The resulting films contained 2.5 mg of drug. Three film samples containing paracetamol were incubated in 0.01 M PBS buffer, pH 7.4 at 37° C. At predetermined time points, the buffer was removed and replaced with fresh medium. The release buffer was analysed using a UV-Vis spectrophotometer.
Films were cast as described above. Every film contained 25 mg of C16 and 1.3 mg of FITC-BSA or FD, respectively. Films containing the substances were incubated in 0.01 M PBS buffer, pH 7.4 at 37° C. At predetermined time points, the buffer was removed and replaced with fresh medium. The release buffer was analysed using a fluorescence spectrophotometer applying an excitation wavelength of 490 nm and an emission of 520 nm. The substance which was not released was quantified by dissolving the film matrix in a 6M GdmSCN solution. This solution was subsequently analysed using a fluorescence spectrophotometer. The sum of the non-released substance and the released amount of substance was calculated as 100%. […] After direct loading with FITC-BSA, C16 films released almost 65% of the model protein within one week. […] The cumulative release of paracetamol, FITC-dextran 21 kDa (FD) and FITC-BSA from C16 films casted from an aqueous solution is shown in FIG. 6.

[3] = Isoelectric point (pI) of spider silk polypeptides
[4] = HPW (highly purified water), LMW drugs 0.5 mg/ml, lysozyme 1% w/v
[5] = pH 3 (formate buffer 5 mM), drug 0.5 mg/ml
[6] = pH 7 (Tris 5 mM), drug 0.5 mg/ml

Molecule | Loading (L) [1, 4] [%] | Loading efficiency (LE) [1, 4] [%] | Loading (L) [1, 5] [%] | Loading efficiency (LE) [1, 5] [%] | Loading (L) [1, 6] [%] | Loading efficiency (LE) [1, 6] [%] | other results
CC(O)C(=O)O.CCOc1ccc2nc3cc(N)ccc3c(N)c2c1.O [Ethacridine lact., ethacridine monohydrate lactate] | 3.3 ± 0.3 | 54.2 ± 3.2 | 2.4 ± 0.5 | 16.5 ± 5.4 | 3.5 ± 1.0 | 45.8 ± 2.7 | 
COC(=O)c1ccc(O)cc1 [Nipagin, nipagin] | 0.8 ± 0.3 | 9.6 ± 4.3 | 0.5 ± 0.2 | 5.3 ± 2.3 | 0.0 ± 0.0 | 0.0 ± 0.0 | 
CCCCNc1ccc(C(=O)OCCN(C)C)cc1 [Tetracaine HCl, tetracain hydrochloride] | 3.8 ± 1.9 | 35.1 ± 8.3 | 0.0 ± 0.0 | 0.0 ± 0.0 | 2.5 ± 07 | 24.3 ± 7.7 | 
CC(=O)Nc1ccc(O)cc1 [paracetamol] |  |  |  |  |  |  | Release from C16 films (in words) ([2]; direct loading): completely release
FITC-BSA: FITC-BSA (MW 66.5 kDa), model drug / model protein |  |  |  |  |  |  | Release after the burst (in words) ([2]; after day 1, 0.01 M PBS pH 7.4, 37° C.): constant amount per day; Release from C16 films (in words) ([2]; direct loading): slower; Burst release from C16 films ([2]; on day 1, direct loading, 0.01 M PBS pH 7.4, 37° C.): approx. 30%; Cumulative release from C16 films ([2]; within one week, direct loading, 0.01 M PBS pH 7.4, 37° C.): ~65%
Lysozyme: model protein, positively charged at physiological pH | 39.8 ± 1.8 | 22.8 ± 0.7 |  |  |  |  | 
B1 |  |  |  |  |  |  | pI [3]: 3.48

From US11324852B2, “Coated silk films, methods for the production thereof and uses thereof” (AMSILK GMBH, priority 2014, dated 2022)
